Experimental data: patent US20220356174A1, “PYRIDIN-2-ONE COMPOUNDS USEFUL AS SMARCA2 ANTAGONISTS” (Epizyme, Inc., priority 2018, published 2022)
Read-outs that look alike come from different tables or passages of the source.

Columns and labels:
A549 cells [1] = assay: Long term proliferation (LTP) assay, day 15 IC50 in A549 cells; type: cell-based; settings: Homo sapiens, 360 h
[2] = target: T1, FL-SMARCA2 (full-length human SMARCA2 isoform 1) (Homo sapiens, UniProt P51531); assay: SMARCA2 ATPase activity assay (ADP-Glo, chicken mononucleosome substrate); type: biochemical; settings: ATPase assay, enzyme 5 nM, ATP 250 uM, chicken mononucleosome 10 nM, 30 min preincubation
T1 construct: FLAG tag (YKDDDDK) (C); made in house; host or cells: Sf21 insect cells (baculovirus, pFastBacI)
T1 sequence (P51531 with tags, fused parts or gaps): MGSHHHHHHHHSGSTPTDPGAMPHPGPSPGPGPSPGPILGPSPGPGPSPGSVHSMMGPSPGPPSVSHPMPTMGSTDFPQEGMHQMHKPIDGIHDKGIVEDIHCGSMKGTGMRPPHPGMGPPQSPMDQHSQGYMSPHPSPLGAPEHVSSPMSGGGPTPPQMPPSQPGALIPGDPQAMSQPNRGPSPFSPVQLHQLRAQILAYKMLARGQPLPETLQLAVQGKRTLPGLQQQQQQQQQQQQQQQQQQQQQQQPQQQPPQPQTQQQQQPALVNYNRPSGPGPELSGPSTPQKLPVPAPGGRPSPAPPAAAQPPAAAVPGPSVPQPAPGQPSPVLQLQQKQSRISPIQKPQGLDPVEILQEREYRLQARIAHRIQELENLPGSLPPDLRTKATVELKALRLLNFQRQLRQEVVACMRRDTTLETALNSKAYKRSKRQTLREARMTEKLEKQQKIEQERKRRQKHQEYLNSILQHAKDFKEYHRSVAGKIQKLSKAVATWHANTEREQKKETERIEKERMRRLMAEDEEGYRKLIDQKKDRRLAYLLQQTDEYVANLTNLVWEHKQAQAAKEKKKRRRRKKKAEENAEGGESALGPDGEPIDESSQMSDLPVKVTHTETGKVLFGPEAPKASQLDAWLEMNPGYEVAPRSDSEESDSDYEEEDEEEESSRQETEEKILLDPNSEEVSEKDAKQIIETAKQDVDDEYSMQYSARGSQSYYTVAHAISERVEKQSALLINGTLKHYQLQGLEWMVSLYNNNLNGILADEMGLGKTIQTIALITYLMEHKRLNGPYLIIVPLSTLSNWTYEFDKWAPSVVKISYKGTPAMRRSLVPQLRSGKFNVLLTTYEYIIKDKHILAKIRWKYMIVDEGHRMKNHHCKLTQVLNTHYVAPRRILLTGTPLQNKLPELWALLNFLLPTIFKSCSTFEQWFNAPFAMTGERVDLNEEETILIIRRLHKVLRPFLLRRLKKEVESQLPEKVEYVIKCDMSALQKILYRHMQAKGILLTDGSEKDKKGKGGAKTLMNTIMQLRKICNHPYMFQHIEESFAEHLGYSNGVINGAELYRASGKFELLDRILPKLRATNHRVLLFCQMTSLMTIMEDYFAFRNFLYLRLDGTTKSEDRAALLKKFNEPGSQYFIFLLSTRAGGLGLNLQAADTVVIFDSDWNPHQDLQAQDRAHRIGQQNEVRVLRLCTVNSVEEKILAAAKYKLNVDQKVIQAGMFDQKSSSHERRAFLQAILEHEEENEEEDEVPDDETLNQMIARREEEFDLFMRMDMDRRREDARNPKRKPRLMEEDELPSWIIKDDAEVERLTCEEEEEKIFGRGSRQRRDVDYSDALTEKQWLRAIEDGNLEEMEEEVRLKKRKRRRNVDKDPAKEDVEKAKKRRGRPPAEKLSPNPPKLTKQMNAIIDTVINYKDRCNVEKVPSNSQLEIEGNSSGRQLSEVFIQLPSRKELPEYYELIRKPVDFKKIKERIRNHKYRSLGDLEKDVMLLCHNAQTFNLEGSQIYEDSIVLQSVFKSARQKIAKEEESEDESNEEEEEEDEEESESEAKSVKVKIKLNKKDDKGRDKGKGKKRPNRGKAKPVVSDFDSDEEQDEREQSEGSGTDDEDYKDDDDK

FL-SMARCA4 = FL-SMARCA4 (Homo sapiens, UniProt P51532); assay: SMARCA4 ATPase activity assay (ADP-Glo, chicken mononucleosome substrate)
Sequence of FL-SMARCA4 (P51532 whole entry): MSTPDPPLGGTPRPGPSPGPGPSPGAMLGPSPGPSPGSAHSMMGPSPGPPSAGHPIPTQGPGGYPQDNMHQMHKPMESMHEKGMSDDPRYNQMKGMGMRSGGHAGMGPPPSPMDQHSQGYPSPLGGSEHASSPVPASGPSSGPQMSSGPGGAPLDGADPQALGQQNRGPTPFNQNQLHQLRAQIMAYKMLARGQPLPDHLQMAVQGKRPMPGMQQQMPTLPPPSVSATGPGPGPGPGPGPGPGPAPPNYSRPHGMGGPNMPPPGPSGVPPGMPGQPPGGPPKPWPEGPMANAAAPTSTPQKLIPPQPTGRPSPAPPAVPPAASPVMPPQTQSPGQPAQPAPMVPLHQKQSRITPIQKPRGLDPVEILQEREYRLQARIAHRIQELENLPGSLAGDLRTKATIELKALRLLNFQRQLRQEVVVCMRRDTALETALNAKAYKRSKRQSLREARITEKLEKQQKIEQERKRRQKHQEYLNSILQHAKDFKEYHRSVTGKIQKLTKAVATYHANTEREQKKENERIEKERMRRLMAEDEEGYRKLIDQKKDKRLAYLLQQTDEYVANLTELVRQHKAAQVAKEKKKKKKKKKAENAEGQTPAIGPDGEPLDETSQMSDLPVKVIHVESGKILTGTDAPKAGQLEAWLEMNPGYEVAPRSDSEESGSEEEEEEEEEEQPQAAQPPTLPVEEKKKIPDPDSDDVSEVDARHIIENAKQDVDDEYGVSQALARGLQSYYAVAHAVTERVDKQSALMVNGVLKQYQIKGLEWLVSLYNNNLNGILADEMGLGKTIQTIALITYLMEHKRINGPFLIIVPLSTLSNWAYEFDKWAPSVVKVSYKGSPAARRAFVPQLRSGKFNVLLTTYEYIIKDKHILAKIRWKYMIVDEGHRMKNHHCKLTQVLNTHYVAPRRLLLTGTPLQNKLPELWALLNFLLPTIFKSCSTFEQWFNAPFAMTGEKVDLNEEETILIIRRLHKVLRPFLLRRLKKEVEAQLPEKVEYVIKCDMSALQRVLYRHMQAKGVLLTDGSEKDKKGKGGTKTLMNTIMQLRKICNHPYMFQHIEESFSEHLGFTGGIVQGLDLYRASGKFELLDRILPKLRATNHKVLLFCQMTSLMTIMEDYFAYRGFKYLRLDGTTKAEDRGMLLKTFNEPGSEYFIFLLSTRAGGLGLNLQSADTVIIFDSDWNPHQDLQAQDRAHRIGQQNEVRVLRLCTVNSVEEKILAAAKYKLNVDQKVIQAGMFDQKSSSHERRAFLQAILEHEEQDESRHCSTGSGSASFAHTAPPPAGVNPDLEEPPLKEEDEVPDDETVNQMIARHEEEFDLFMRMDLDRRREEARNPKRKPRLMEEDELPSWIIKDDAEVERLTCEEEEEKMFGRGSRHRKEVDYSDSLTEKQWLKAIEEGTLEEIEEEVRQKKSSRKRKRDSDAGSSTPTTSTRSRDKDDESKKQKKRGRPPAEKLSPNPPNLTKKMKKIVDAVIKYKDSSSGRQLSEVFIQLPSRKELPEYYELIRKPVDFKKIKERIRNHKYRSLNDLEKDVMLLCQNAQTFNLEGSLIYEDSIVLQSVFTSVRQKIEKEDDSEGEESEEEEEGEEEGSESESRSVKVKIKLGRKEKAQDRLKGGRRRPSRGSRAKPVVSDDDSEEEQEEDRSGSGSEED

A549 cells [3] = assay: High-throughput proliferation (HTP) assay for A549 cells (CellTiter-Glo, 7 days); type: cell-based; settings: Homo sapiens, 168 h, read-out: A549 SMARCA2 IC50
How it was run: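 A549 cells plated at 62.5 cells/well in F12K + 10% HI-FBS onto pre-dispensed compound, grown 7 days at 37° C., 5% CO2. Viability by CellTiter-Glo luminescence after 30 min at RT; EC50/IC50 from DMSO (0%) and 10 μM Doxorubicin (100%) inhibition controls.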

H358 cells = assay: High-throughput proliferation (HTP) assay for H358 cells (CellTiter-Glo, 7 days); type: cell-based; settings: Homo sapiens, NCI-H358, 168 h, read-out: H358 SMARCA2 IC50
How it was run: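 Cells were plated at 1,000 cells/well in RPMI 1640 + 10% HI-FBS + 1% pen/strep on pre-dispensed compound and incubated 7 days at 37 °C, 5% CO2. Viability was read as ATP luminescence with CellTiter-Glo after 30 min at RT. DMSO served as 0% and 10 µM doxorubicin as 100% inhibition for EC50/IC50.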

SMARCA2 = target: T2, SMARCA2 (Homo sapiens, UniProt P51531); assay: SMARCA2 FRET nucleosome remodeling activity assay; type: biochemical
T2 construct: FLAG tag (YKDDDDK) (C); made in house; host or cells: Sf21 insect cells (baculovirus, pFastBacI)
T2 sequence (P51531 with tags, fused parts or gaps): as the sequence (P51531 with tags, fused parts or gaps) above
Procedure: The SMARCA2 remodeling assay was initiated by the addition of 2 uL of a nucleosome remodeling assay substrate and ATP mixture (final volume=10 uL). […] The assays were terminated after 15 minutes by the addition of 2 uL EDTA (final concentration of 25 mM). The SMARCA2 remodeling activity was determined by measuring the fluorescence ratio of the Cy3 and Cy5 labels ([…]). The remodeling of the nucleosome substrate causes an increase in the spacing between the Cy3 and Cy5 labels and therefore a reduction in FRET and an increase in Cy3/Cy5 fluorescence ratio.

[4] = FL-SMARCA4 IC>50, Table 3c.2, ATPase assay, enzyme 5 nM, ATP 250 uM, chicken mononucleosome 10 nM, 30 min preincubation
[5] = FL-SMARCA4 IC50, Table 3.2, ATPase assay, enzyme 5 nM, ATP 250 uM, chicken mononucleosome 10 nM, 30 min preincubation

Structure (SMILES)	IC50 (A549 cells [1])	IC50 ([2]; Table 3d.1, read-out: FL-SMARCA2 IC>50)	IC50 (FL-SMARCA4; FL-SMARCA4 IC50)	IC50 ([2]; Table 3.1)	IC50 (A549 cells [3])	IC50 ([2]; Table 3c.1)	IC50 (FL-SMARCA4; [4])	IC50 (H358 cells)	IC50 (FL-SMARCA4; [5])	IC50 (SMARCA2)
CCn1cc(NC(=O)c2cc(Cl)c(Cl)s2)ncc1=O [Compound 18d]	≥ 30000 nM	> 50000 nM	> 50000 nM							
CCn1cc(NC(=O)c2cc(Cl)c(Cl)s2)ccc1=O [Compound 43]	15200 nM			1260 nM						
Cn1c(C(=O)Nc2ccc(=O)n(-c3ccccc3)c2)cc(Cl)c1Cl [Compound 47]	≥ 30000 nM			> 50000 nM						
Cc1ncc(C#Cc2cc(C(=O)Nc3cc(F)c(=O)n(CC(F)F)c3)sc2Cl)o1 [Compound 62c]	89 nM				548 nM	8.05 nM	26.8 nM	> 10000 nM		
Cc1cc(C#Cc2cc(C(=O)Nc3cc(F)c(=O)n(CC(F)F)c3)sc2Cl)sn1 [Compound 64c]	88 nM				374 nM	8.79 nM	29.7 nM	> 10000 nM		
O=C(Nc1ccc(=O)n(CCF)c1)c1cc(Cl)c(Cl)s1 [Compound 80]	6250 nM			209 nM	11500 nM				758 nM	
N#Cc1sc(C(=O)Nc2cc(F)c(=O)n(CC(F)F)c2)cc1C(F)(F)F [Compound 96c]	≥ 10000 nM				> 10000 nM	10500 nM	29300 nM	> 10000 nM		
O=C(Nc1cc(Cl)c(=O)n(CCF)c1)c1cc(Cl)c(Cl)s1 [Compound 101]	356 nM			74.1 nM	2270 nM				237 nM	314 nM
N#Cc1sc(C(=O)Nc2cc(Cl)c(=O)n(CCF)c2)cc1Cl [Compound 125, 4-Chloro-N-(5-chloro-1-(2-fluoroethyl)-6-oxo-1,6-dihydropyridin-3-yl)-5-cyanothiophene-2-carboxamide]	484 nM			30.9 nM	1160 nM				108 nM	66.1 nM
N#Cc1ncc(C(=O)Nc2cc(F)c(=O)n(CCF)c2)s1 [Compound 138]	≥ 20000 nM			6.42 nM	≥ 20000 nM				16.1 nM	14.3 nM
O=C(Nc1cc(F)c(=O)n(CCF)c1)c1cnc(Cl)s1 [Compound 142]	534 nM			47.4 nM	1340 nM				163 nM	60 nM
N#Cc1cc(C(=O)Nc2cc(F)c(=O)n(CCF)c2)[nH]n1 [Compound 176]	≥ 20000 nM			55.2 nM	≥ 20000 nM				267 nM	81.8 nM
CCn1cc(NC(=O)c2cc(C#N)c(C#N)s2)cc(F)c1=O [Compound 188]	9900 nM			30.5 nM	18100 nM				119 nM	22.2 nM
N#Cc1cc(C(=O)Nc2cc(F)c(=O)n(CC(F)(F)F)c2)sc1C#N [Compound 190]	3900 nM			20.1 nM	12000 nM				85.1 nM	35 nM
CCn1cc(NC(=O)c2cc(C#N)c(C#N)s2)cc(Cl)c1=O [Compound 191]	8300 nM			45.9 nM	13400 nM				184 nM	65.3 nM
N#Cc1cc(C(=O)Nc2cc(Cl)c(=O)n(CCF)c2)sc1C#N [Compound 192]	4200 nM			17.1 nM	≥ 20000 nM				87.4 nM	21.9 nM
O=C(Nc1cc(F)c(=O)n(CCF)c1)c1cc(Cl)c(C(F)(F)F)s1 [Compound 249]	323 nM			35.8 nM	734 nM				260 nM	70 nM
O=C(Nc1cc(F)c(=O)n(CCF)c1)c1cc(F)c(F)s1 [Compound 259]	177 nM			51.1 nM	2460 nM				228 nM	
O=C(Nc1cc(F)c(=O)n(CCF)c1)c1cc(F)c(Cl)s1 [Compound 260]	93 nM			15.3 nM	528 nM				65.4 nM	18.2 nM
O=C(Nc1cc(F)c(=O)n(CCF)c1)c1cnc(C(F)(F)F)s1 [Compound 265]	851 nM			81.5 nM	7300 nM				590 nM	143 nM
N#Cc1ncc(C(=O)Nc2cc(F)c(=O)n(CC(F)(F)F)c2)o1 [Compound 267]	≥ 10000 nM			> 50000 nM					> 50000 nM	
O=C(Nc1cc(F)c(=O)n(CC(F)F)c1)c1cc(F)c(Cl)s1 [Compound 323]	106 nM			19.2 nM	313 nM				68.3 nM	
O=C(Nc1cc(F)c(=O)n(CCF)c1)c1cc(F)c(C(F)F)s1 [Compound 324]	282 nM			34.9 nM					137 nM	
O=C(Nc1cc(F)c(=O)n(CC(F)F)c1)c1cc(F)c(C(F)F)s1 [Compound 325]	312 nM			35.5 nM					163 nM	
O=C(Nc1cc(F)c(=O)n(CC(F)F)c1)c1cc(C#Cc2ccncc2)c(Cl)s1 [Compound 345]	58 nM			16.5 nM	355 nM			> 10000 nM	37.9 nM	
